# Laboratory results published in ChEMBL document CHEMBL3808363, “2-(Thienothiazolylimino)-1,3-thiazolidin-4-ones inhibit cell division cycle 25 A phosphatase” (Bioorg Med Chem, 2016).
# Activity calls are given as the source filed them. The calls are words filed in the database; no cut-off is given here.
# Experiments:
# [1] = target: T1, M-phase inducer phosphatase 1 (Homo sapiens) (UniProt P30304); experiment: (§1) Inhibition of human recombinant full length GST-tagged CDC25A transfected in Escherichia coli BL21-DE3 using 3-O-methylfluorescein phosphate as substrate at 10 uM incubated for 20 mins followed by substrate addition measured every 10 mins for 2 hrs by fluorimetric assay in presence of 0.025% triton X 100
# T1 sequence (whole entry): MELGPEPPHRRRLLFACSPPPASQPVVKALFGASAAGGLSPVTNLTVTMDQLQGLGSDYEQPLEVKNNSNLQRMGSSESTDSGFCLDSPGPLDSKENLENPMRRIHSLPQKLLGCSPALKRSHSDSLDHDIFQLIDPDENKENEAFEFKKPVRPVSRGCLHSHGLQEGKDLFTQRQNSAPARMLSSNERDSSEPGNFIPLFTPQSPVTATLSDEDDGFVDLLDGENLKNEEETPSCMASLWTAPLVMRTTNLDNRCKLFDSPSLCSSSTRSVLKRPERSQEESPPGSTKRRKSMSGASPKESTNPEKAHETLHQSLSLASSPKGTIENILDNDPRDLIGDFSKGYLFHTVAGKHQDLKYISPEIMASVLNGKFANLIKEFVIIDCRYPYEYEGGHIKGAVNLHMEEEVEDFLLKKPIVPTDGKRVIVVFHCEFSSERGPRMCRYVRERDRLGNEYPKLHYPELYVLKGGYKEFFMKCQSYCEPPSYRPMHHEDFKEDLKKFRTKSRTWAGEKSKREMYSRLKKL
# [2] = target: T2, M-phase inducer phosphatase 1 (Homo sapiens, UniProt P30304); experiment: (§2) Mixed type inhibition of human recombinant full length GST-tagged CDC25A transfected in Escherichia coli BL21-DE3 assessed as enzyme/inhibitor complex using 3-O-methylfluorescein phosphate as substrate at 20 uM incubated for 20 mins followed by substrate addition measured every 10 mins for 2 hrs by fluorimetric assay
# T2 sequence (P30304 whole entry): T1 sequence (whole entry)
# [3] = target: T1, M-phase inducer phosphatase 1 (Homo sapiens); experiment: Reversible binding affinity to human recombinant full length GST-tagged CDC25A transfected in Escherichia coli BL21-DE3 after 1 hr by MALDI-TOF mass spectrometry
# [4] = target: T1, M-phase inducer phosphatase 1 (Homo sapiens); experiment: as §1, with “0.05%” for “0.025%”
# MCF7 [5] = experiment: Cytotoxicity against human MCF7 cells assessed as inhibition of cell growth at IC50 concentration after 72 hrs by trypan blue assay; assay type: functional
# MDA-MB-231 [6] = experiment: Cytotoxicity against human MDA-MB-231 cells assessed as inhibition of cell growth at IC50 concentration after 72 hrs by trypan blue assay; assay type: functional
# MDA-MB-231 [7] = experiment: Induction of autophagy in human MDA-MB-231 cells assessed as acidic vesicles at 8.4 uM over 3 days by acridine orange dye based flow cytometry; assay type: functional, cell-based
# MCF7 [8] = experiment: Increase in peroxynitryl radical levels in human MCF7 cells at IC50 concentration incubated for 24 hrs by DHR dye based flow cytometry; assay type: functional, cell-based
# MCF7 [9] = experiment: Cell cycle arrest in human MCF7 cells assessed as accumulation at S phase at IC50 concentration after 48 hrs by propidium iodide staining-based flow cytometry (reference value: 19.5 +/- 0.6%); assay type: functional
# MCF7 [10] = experiment: Induction of apoptosis in human MCF7 cells assessed as chromatin condensation after 24 to 48 hrs by DAPI staining based UV fluorescent microscopy; assay type: functional, cell-based
# [11] = target: T2, M-phase inducer phosphatase 1; experiment: as §2, with “as enzyme/substrate/inhibitor” for “as enzyme/inhibitor”, “at 10” for “at 20”
# MDA-MB-231 [12] = experiment: Cell cycle arrest in human MDA-MB-231 cells assessed as accumulation at G2/M phase at IC50 concentration after 48 hrs by propidium iodide staining-based flow cytometry (reference value: 20.9 +/- 1.1%); assay type: functional
# HT-29 = experiment: Cytotoxicity against human HT-29 cells assessed as inhibition of cell growth after 72 hrs by MTT assay; assay type: functional, cell-based; conditions: HT-29, 72 h
# MCF7 [13] = experiment: Cytotoxicity against human MCF7 cells assessed as inhibition of cell growth after 72 hrs by MTT assay; assay type: functional, cell-based; conditions: MCF7, 72 h
# [14] = target: T2, M-phase inducer phosphatase 1; experiment: as §2, with “enzyme/substrate/inhibitor” for “enzyme/inhibitor”
# MDA-MB-231 [15] = experiment: Induction of apoptosis in human MDA-MB-231 cells assessed as nuclear fragmentation after 24 hrs by dihydro-rhodamine 123/hoechst […] staining based UV fluorescent microscopy; assay type: functional, cell-based
# MCF7 [16] = experiment: Antiproliferative activity against human MCF7 cells assessed as cell viability at IC50 concentration after 48 hrs by 2',7'-dichlorofluorescin diacetate/PI staining based flow cytometry; assay type: functional
# [17] = target: T2, M-phase inducer phosphatase 1; experiment: Inhibition of human recombinant full length GST-tagged CDC25A transfected in Escherichia coli BL21-DE3 using 3-O-methylfluorescein phosphate as substrate incubated for 20 mins followed by substrate addition measured every 10 mins for 2 hrs by fluorimetric assay
# MDA-MB-231 [18] = experiment: Induction of apoptosis in human MDA-MB-231 cells assessed as chromatin condensation after 24 to 48 hrs by DAPI staining based UV fluorescent microscopy; assay type: functional, cell-based
# MDA-MB-231 [19] = experiment: Cytostatic activity against human MDA-MB-231 cells at IC50 concentration; assay type: functional, cell-based
# MCF7 [20] = experiment: Induction of autophagy in human MCF7 cells assessed as acidic vesicles at 5.1 uM over 3 days by acridine orange dye based flow cytometry; assay type: functional, cell-based
# [21] = target: T1, M-phase inducer phosphatase 1 (Homo sapiens); experiment: as §1, with “0.5%” for “0.025%”
# MCF7 [22] = experiment: Cytostatic activity against human MCF7 cells at IC50 concentration; assay type: functional, cell-based
# [23] = target: T2, M-phase inducer phosphatase 1; experiment: as §2, with “as enzyme/substrate/inhibitor” for “as enzyme/inhibitor”, “at 5” for “at 20”
# MDA-MB-231 [24] = experiment: Antiproliferative activity against human MDA-MB-231 cells assessed as cell viability at IC50 concentration after 48 hrs by 2',7'-dichlorofluorescin diacetate/PI staining based flow cytometry; assay type: functional
# [25] = Cytotoxicity against human HCT116 cells assessed as inhibition of cell growth after 72 hrs by MTT assay; assay type: functional, cell-based; conditions: HCT-116, 72 h
# [26] = target: T2, M-phase inducer phosphatase 1; experiment: as §2, with “at 10” for “at 20”
# [27] = target: T1, M-phase inducer phosphatase 1 (Homo sapiens); experiment: Inhibition of human recombinant full length GST-tagged CDC25A transfected in Escherichia coli BL21-DE3 using 3-O-methylfluorescein phosphate as substrate at 10 uM incubated for 20 mins followed by substrate addition measured every 10 mins for 2 hrs by fluorimetric assay in presence of 0.1% BSA
# [28] = target: T1, M-phase inducer phosphatase 1 (Homo sapiens); experiment: Inhibition of human recombinant full length GST-tagged CDC25A transfected in Escherichia coli BL21-DE3 using 3-O-methylfluorescein phosphate as substrate at 10 uM incubated for 20 mins followed by substrate addition measured every 10 mins for 2 hrs by fluorimetric assay
# MDA-MB-231 [29] = experiment: Cell cycle arrest in human MDA-MB-231 cells assessed as accumulation at G0/G1 phase at IC50 concentration after 48 hrs by propidium iodide staining-based flow cytometry (reference value: 57.3 +/- 0.3%); assay type: functional
# MDA-MB-231 [30] = experiment: Increase in peroxynitryl radical levels in human MDA-MB-231 cells at IC50 concentration incubated for 24 hrs by DHR dye based flow cytometry; assay type: functional, cell-based
smiles,measurement,setting,value
COc1ccc(/C=C2/S/C(=N\c3nc4cc(-c5ccc(Cl)cc5)sc4s3)NC2=O)cc1,inhibition,[1],27.1%
same,Ki,[2],3.1 µM
same,Activity,[3],Active
same,inhibition,[4],54.4%
same,growth inhibition (GI),MCF7 [5],45%
same,growth inhibition (GI),MDA-MB-231 [6],70%
same,Activity,MDA-MB-231 [7],inactive
same,Activity,MCF7 [8],Active
same,Activity,MCF7 [9],25.3%
same,Activity,MCF7 [10],inactive
same,Ki,[11],5.1 µM
same,Activity,MDA-MB-231 [12],15.9%
same,IC50,HT-29,10.3 µM
same,IC50,MCF7 [13],5.1 µM
same,Ki,[14],3.9 µM
same,Activity,MDA-MB-231 [15],inactive
same,Activity,MCF7 [16],inactive
same,IC50,[17],6.2 µM
same,Activity,MDA-MB-231 [18],inactive
same,Activity,MDA-MB-231 [19],Active
same,Activity,MCF7 [20],inactive
same,inhibition,[21],97.5%
same,Activity,MCF7 [22],Active
same,Ki,[23],12.2 µM
same,Activity,MDA-MB-231 [24],inactive
same,IC50,[25],9.2 µM
same,Ki,[26],4.8 µM
same,inhibition,[27],21.8%
same,inhibition,[28],70.3%
same,Activity,MDA-MB-231 [29],58.3%
same,Activity,MDA-MB-231 [30],Active
